Read-outs that look alike come from different tables or passages of the source. In the oligonucleotide strings, read from the 5' end, every base follows the letter of its sugar. An asterisk marks phosphorothioate; unmarked linkages are phosphodiester. Other units and linkages are bracketed, terminal groups are in braces. A string of capitals states the bases alone. d = 2'-deoxy (DNA)
Legend:
[1] = test system: HIV-1 strain DV; assay: HIV-1 induced syncytia formation assay in SUP T1 cells; assay type: cell-based
[2] = test system: SUP T1 cells
[3] = biological target: HIV-1 RT (Human immunodeficiency virus type 1 group M subtype B, UniProt P04585); assay: In vitro inhibition of HIV-1 RT (kinetic analysis); assay type: biochemical; conditions: for IC50: read-out: ID50 (the source's name)
[4] = biological target: HIV-1 gp120 interaction with CD4 (Human immunodeficiency virus type 1 group M subtype B, UniProt P04578)
[5] = test system: HIV-1DV; assay: HIV-1 p24 production in SUP T1 cells; assay type: cell-based; conditions: for IC50: SUP T1, HIV-1DV, four days
[6] = test system: Yellow Fever virus
[7] = test system: Polio virus-1
[8] = test system: HSV-1
[9] = test system: RSV (A2)
[10] = test system: SIVMAC251; assay type: cell-based, simian immunodeficiency virus; conditions: SIVMAC251, MT4; read-out: IC50 virus production
[11] = test system: Semliki forest virus
[12] = test system: Junin virus
[13] = test system: HIV-1 strains (SKI, RF, DV, IIIB, ADP/141); assay: microbe, parasite or virus in culture; assay type: cell-based
[14] = test system: HIV-2 (ROD, EHO); assay: HIV-2 infection assay in MT4 cells; assay type: cell-based; conditions: read-out: IC50 virus production
[15] = test system: HSV-2 (G)
[16] = test system: Coxsackie virus (B4)
[17] = test system: Tacaribe
[18] = test system: Sindbis virus
[19] = test system: Punta Toro virus
[20] = test system: Vaccinia virus
[21] = test system: Influenza A (H3N2); conditions: Influenza A (H3N2) assay
[22] = biological target: recombinant HIV-1 integrase (wild-type) (Human immunodeficiency virus type 1 group M subtype B, UniProt P12497); assay: HIV-1 integrase 3′-processing and strand transfer assays; assay type: biochemical; set-up: Purified recombinant HIV-1 integrase enzyme (wild-type) was a generous gift from Dr. R. Craigie; purchased gift of Dr. R. Craigie, Laboratory of Molecular Biology, NIDDK (not bought)
Experimental: Integrase enzyme assays. Purified recombinant HIV-1 integrase enzyme (wild-type) was a generous gift from Dr. R. Craigie, Laboratory of Molecular Biology, National Institute of Diabetes and Digestive and Kidney Diseases. The enzyme (0.25 μM) was preincubated in reaction buffer at 20° C. for 30 minutes. All 3′-processing and strand-transfer reactions were performed as described previously by Fresen et al. (Fresen, et al., Proc. Natl. Acad. Sci. USA 90:2399-2403 (1993)) and Mazumder et al. (Mazumder, et al., Proc. Natl. Acad. Sci. USA 91:5771-5775 (1994)). Enzyme reactions were quenched by the addition of Maxam-Gilbert loading dye, and an aliquot was electrophoresed on a denaturing 20% polyacrylamide gel. Gels were then dried and subjected to autoradiography using Kodax XAR-2 film or exposed in a Molecular Dynamics Phospholmager cassette.
Integrase was preincubated at a final concentration of 200 (for HIV-1 and HIV-2) or 600 nM (for FIV and SIV) with inhibitor in reaction buffer (50 mM Nac1, 1 mM HEPES, pH 7.5, 50 μM dithiothreitol, 10% glycerol (wt/vol), 7.5 mM MnCl2 or MgCL2 (when specified), 0.1 mg/mL bovine serum albumin, 20 mM 2-mercaptoethanol, 10% dimethyl sulfoxide, and 25 mM MOPS, pH 7.2) at 30° C. for 30 minutes. When magnesium was used as the divalent metal ion, polyethylene glycol was added at a final concentration of 5% to increase activity as previously described (Engelman & Craigie, 1995). Preincubation for 30 minutes of the enzyme with inhibitor was performed to optimize increases the inhibitory activity in the 3′-processing reaction (Fesen et al., 1994). Then, 30 nM of the 5′-end ^32P-labeled linear oligonucleotide substrate was added, and incubation was continued for an additional 1 hr. The final reaction volume was 16 μL.
Electrophoresis and quantitation. Reactions were quenched by the addition of an equal volume […] of loading dye (98% deionized formamide, 10 mM EDTA, 0.025% xylene cyanol, 0.025% bromophenol blue). An aliquot (5 μL) was electrophoresed on a denaturing 20% polyacrylamide gel (0.09 M Tris-borate pH 8.3, 2 mM EDTA, 20% acrylamide, 8M urea). Gels were dried, exposed in a Molecular Dynamics Phosphorimager cassette, and analyzed using a Molecular Dynamics phosphorimager (Sunnyvale, Calif.). Percent inhibition was calculated using the following equation:
where C, N, and D are the fractions of 21mer substrate converted to 19mer (3′-processing product) or strand transfer products for DNA alone, DNA plus integrase, and integrase plus drug, respectively.
Antiviral assay. The RF laboratory strain of HIV-1 was used to infect established cell lines for one hour at 37° C. prior to washing and resuspension in medium containing increasing concentrations of drug. […] Purified recombinant HIV-1 integrase enzyme (wild-type) was a generous gift from Dr. Craigie, Laboratory of Molecular Biology, NIDDK. All 3′-processing and strand-transfers were performed as described previously by Fresen et al. (Fresen et al. (1993) Proc. Natl. Acad. Sci. VSA 90, 2399-2403) and Mazurnder et al. (Mazumder et al. (1994) Proc. Natl. Acad. Sci. USA 91, 5771-75).

[23] = test system: Vesicular Stomatitis virus
[24] = biological target: T7 polymerase (Escherichia phage T7, UniProt P00573); assay: Bacterial T7 in-vitro transcription assay; assay type: biochemical
Experimental: In this assay system, a 2 kb fragment (HindIII to EcoR1) of the FMLV virus (clone 57) was molecularly cloned between the HindIII/EcoR1 sites 10 bp downstream of the bacterial T7 promoter (p275A) or 50 bp downstream of the bacterial T3 promoter (pBSFMLV2). A schematic representation of these two recombinant plasmids can be seen in FIG. 1. Isolated recombinant DNA was then digested with DdeI. Oligonucleotides were then incubated with the digested DNA and the mixture was subjected to in-vitro transcription using either the T7 or T3 bacterial enzymes.

[25] = test system: SUP T1 cells; assay: Cytotoxicity assay, CellTiter 96 (MTS), SUP T1 cells; conditions: read-out: TC50 (concentration reducing cell proliferation by 50%); SUP T1, dye (MTS) metabolism assay
[26] = test system: HSV-1 IE175 promoter; assay: Eukaryotic in vitro transcription (HeLa cell nuclear extract)
[27] = biological target: T1, FMLV reverse transcriptase (Friend murine leukemia virus, UniProt P26810); assay: Reverse transcriptase assay (ELOSA); assay type: biochemical; conditions: read-out: inhibitory concentration for 50% reduction in RT activity
T1 construct: Culture media containing FMLV reverse transcriptase (RT) was mixed with various concentrations; endogenous in cells; host or cells: culture medium of FMLV-infected murine fibroblasts (pLRB215)

[28] = test system: HSV-2 strain HG52; assay: HSV-2 viral yield reduction assay in Vero cells
[29] = SUP T1, HIV-1DV, four days, read-out: IC50 Syn (syncytium inhibition)
[30] = SUP T1, HIV-1 DV, read-out: IC50 in anti-HIV-1 syncytia formation assay
[31] = read-out: ID50 [CD4], oligo binding to immobilized CD4
[32] = read-out: ID50 [gp 120], oligo preincubated with soluble gp120

T7 polymerase, sequence (P00573 whole entry, the tested form may be a part): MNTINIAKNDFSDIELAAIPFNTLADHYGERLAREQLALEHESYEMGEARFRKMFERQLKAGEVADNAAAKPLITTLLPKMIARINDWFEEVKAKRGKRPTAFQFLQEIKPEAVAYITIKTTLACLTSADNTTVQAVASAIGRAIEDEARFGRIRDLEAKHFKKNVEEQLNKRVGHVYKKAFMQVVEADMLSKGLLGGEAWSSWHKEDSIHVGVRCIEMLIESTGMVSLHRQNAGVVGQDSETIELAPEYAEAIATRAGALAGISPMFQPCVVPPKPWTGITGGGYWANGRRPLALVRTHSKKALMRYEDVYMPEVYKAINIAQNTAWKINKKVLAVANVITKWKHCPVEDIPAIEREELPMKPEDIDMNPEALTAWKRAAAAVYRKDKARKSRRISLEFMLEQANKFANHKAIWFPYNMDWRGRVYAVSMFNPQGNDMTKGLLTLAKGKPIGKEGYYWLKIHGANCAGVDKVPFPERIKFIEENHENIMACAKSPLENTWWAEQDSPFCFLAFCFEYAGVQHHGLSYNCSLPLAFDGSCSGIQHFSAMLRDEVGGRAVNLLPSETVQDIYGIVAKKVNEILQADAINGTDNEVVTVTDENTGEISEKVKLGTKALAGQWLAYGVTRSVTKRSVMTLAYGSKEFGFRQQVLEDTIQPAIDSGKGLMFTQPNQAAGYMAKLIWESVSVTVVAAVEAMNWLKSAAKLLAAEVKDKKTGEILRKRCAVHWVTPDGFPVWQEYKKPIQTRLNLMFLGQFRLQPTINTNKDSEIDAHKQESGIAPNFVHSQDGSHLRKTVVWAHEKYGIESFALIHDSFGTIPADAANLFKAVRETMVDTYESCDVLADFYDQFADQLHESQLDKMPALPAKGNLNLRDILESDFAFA

5′-gtggtgggtgggtgggtggtgggtggtggttgtgggtgggtggtg-3′ [I100-07]
IC50 [1, 29]: 0.25 µM | IC50 [1, 30]: 0.25 µM | CC50 [2]: > 50 µM | Ki [3]: 0.137 µM | IC50 [3]: 2.5 µM | inhibition of detection of immobilized gp120 by HRP-α-gp120 antibody ([4]; control experiment): did not inhibit | IC50 [4, 31]: 4.25 µM | IC50 [4, 32]: 0.8 µM | Percent p24 relative to infected untreated control, Day 7 ([5]; 2.5 uM, drug removed day 4): 15.9% | Percent p24 relative to infected untreated control, Day 11 ([5]; 2.5 uM, drug removed day 4): 8.6% | Percent p24 relative to infected untreated control, Day 4 ([5]; 2.5 uM, medium replaced day 4): 6.0% | IC50 [5]: 0.55 µM

Dextran sulfate [DS5000, reference compound]
IC50 virus-induced cytopathogenicity [6]: 26 µg/mL | MCC minimum concentration altering normal cell morphology [6]: >200 μg/mL | IC50 virus-induced cytopathogenicity [7]: >400 µg/mL | MCC minimum concentration altering normal cell morphology [7]: >400 μg/mL | IC50 virus-induced cytopathogenicity ([8]; HSV-1 (KOS)): 2 µg/mL | MCC minimum concentration altering normal cell morphology ([8]; HSV-1 (KOS) assay): >400 μg/mL | IC50 virus-induced cytopathogenicity ([8]; HSV-1 TK (B2006)): 2 µg/mL | MCC minimum concentration altering normal cell morphology ([8]; HSV-1 TK (B2006) assay): >400 μg/mL | IC50 virus-induced cytopathogenicity ([8]; HSV-1 TK (VMW1837)): 2 µg/mL | MCC minimum concentration altering normal cell morphology ([8]; HSV-1 TK (VMW1837) assay): >400 μg/mL | IC50 virus-induced cytopathogenicity ([9]; RSV (A2)): 4 µg/mL | MCC minimum concentration altering normal cell morphology ([9]; RSV (A2) assay): >200 μg/mL | IC50 [10]: 0.548 ± 0.48 µM | IC50 virus-induced cytopathogenicity ([11]; Semliki forest virus): >400 µg/mL | MCC minimum concentration altering normal cell morphology ([11]; Semliki forest virus assay): >400 μg/mL | IC50 virus-induced cytopathogenicity [12]: 13 µg/mL | MCC minimum concentration altering normal cell morphology [12]: >200 μg/mL | IC50 ([13]; HIV-1 ADP/141 (AZT resistant), MT4, read-out: IC50 virus production): 0.032 ± 0.008 µM | IC50 ([13]; HIV-1 IIIB, CEM-SS or MT4, read-out: Antiviral Assay IC50 IIIB): 0.031 µM | IC50 ([13]; HIV-1 IIIB, MT4, read-out: IC50 virus production): 0.034 ± 0.016 µM | IC50 ([13]; HIV-1 RF, CEM-SS or MT4, read-out: Antiviral Assay IC50 RF): 0.016 µM | IC50 ([13]; HIV-1 RF, MT4, read-out: IC50 virus production): 0.018 ± 0.02 µM | IC50 ([14]; HIV-2EHO): 0.084 ± 0.086 µM | IC50 ([14]; HIV-2ROD): 0.082 ± 0.088 µM | IC50 virus-induced cytopathogenicity ([15]; HSV-2 (G)): 2 µg/mL | MCC minimum concentration altering normal cell morphology ([15]; HSV-2 (G) assay): >400 μg/mL | IC50 virus-induced cytopathogenicity ([16]; Coxsackie virus (B4)): >400 µg/mL | MCC minimum concentration altering normal cell morphology ([16]; Coxsackie virus (B4) assay): >400 μg/mL | IC50 virus-induced cytopathogenicity [17]: 13.5 µg/mL | MCC minimum concentration altering normal cell morphology [17]: >200 μg/mL | IC50 virus-induced cytopathogenicity ([18]; Sindbis virus): 10 µg/mL | MCC minimum concentration altering normal cell morphology ([18]; Sindbis virus assay): >400 μg/mL | IC50 virus-induced cytopathogenicity ([19]; Punta Toro virus): 10.9 µg/mL | MCC minimum concentration altering normal cell morphology ([19]; Punta Toro virus assay): >400 μg/mL | IC50 virus-induced cytopathogenicity [20]: >400 µg/mL | MCC minimum concentration altering normal cell morphology [20]: >400 μg/mL | MCC minimum concentration altering normal cell morphology [21]: >400 μg/mL | IC50 ([22]; 3′-processing, read-out: Anti-Integrase Assay IC50 3′-proc): 0.07 µM | IC50 ([22]; strand transfer, read-out: Anti-Integrase Assay IC50 strand tran.): 0.06 µM | IC50 virus-induced cytopathogenicity [23]: 20 µg/mL | MCC minimum concentration altering normal cell morphology [23]: >400 μg/mL

5′-gatccatgtcagtgacactgcgtagatccgatgatccagtcgatg-3′ [I100-11]
T7 directed transcription [24]: increased the level of specific transcripts | CC50 [25]: 46.5 µM | eukaryotic transcription from HSV-1 IE175 promoter [26]: capable of inhibiting eukaryotic transcription

5′-gttgggggttgttggtggggtggtgg-3′ [I100-12] (GTTGGGGGTTGTTGGTGGGGTGGTGG; phosphorothioate backbone, further chemistry not given here) [PT version of I100-00]
IC50 [1, 29]: 0.225 µM | CC50 [2]: 18 µM | Ki [3]: 0.005 µM | IC50 [3]: 0.015 µM | IC50 [4, 31]: 0.475 µM | IC50 [4, 32]: 0.08 µM | IC50 [27]: < 0.5 µM | IC50 [5]: < 0.2 µM

B106-97: fully phosphorothioated version of B106-71 (dG*dT*dG*dG*dT*dT*dG*dG*dT*dG*dG*dT*dG*dG*dT*dG*dT*dG*dT*dG*dG*dG*dT*dT*dT*dG*dG*dG*dG*dT*dG*dG*dG*dG*dG*dG; 3' end capped with propanolamine or cholesterol, which one not given here)
concentration reducing virus by 50% [28]: same levels as B106-96

5′-gttgggggttgttggtggggtggtgg-3′ [I100-00] (DNA GTTGGGGGTTGTTGGTGGGGTGGTGG; phosphorodiamidate backbone, further chemistry not given here)
IC50 [1, 30]: 3.75 µM | Ki [3]: 0.37 µM | IC50 [3]: 5 µM | IC50 [4, 31]: 18 µM | IC50 [4, 32]: 3.5 µM | CC50 [25]: 37 µM
